Patent US9221838B2, “Inhibitors of AKT activity” (ALMAC DISCOVERY LIMITED, priority 2009, dated 2015)

What was measured:
[1] = system: PC3 and/or LnCaP cell lines; test: in vitro cell proliferation assay (Cell Titre Glo); format: cell-based; details: Homo sapiens, read-out: inhibition of proliferation, IC50
Description: Testing of the compounds was also performed using in vitro cell proliferation assays:
Cell Titre Glo (Promega) is a highly sensitive homogeneous reagent used to determine the viability of cells. The reagent uses a stable form of luciferase to measure ATP as an output of viability. The luminescent values generated in the assay are directly proportional to the number of viable cells in your assay.
The following materials were used: White, clear bottomed 96 well assay plates (Costar); Cell titre Glo reagents; LnCaP (ECACC) cells grown in RPMI medium (Invitrogen) supplemented with 10 mM HEPES (Invitrogen), 1 mM Sodium pyruvate (Invitrogen), 2 mM L-Glutamine (Invitrogen) and 10% Foetal calf serum (Invitrogen); PC3 (ECACC) cells grown in RPMI medium supplemented with 10% Foetal calf serum (Invitrogen); Trypsin (Invitrogen); PBS (Invitrogen); Biotek Synergy 4 Hybrid Plate reader; 96 well plate shaker (Stuart SSL5); Eppendorf 5414 desk-top centrifuge; Beckman Coulter cell counter Z1 single threshold system.
Prostate cell lines, PC3 and LnCaP, were washed, detached and re-suspended in their respective fresh media. The cells were pelleted by centrifugation (Eppendorf 5414) and spent supernatant discarded. The cells were re-suspended by vortex mixing, counted and seeded into clear bottom white 96 well plates at a density of 5000 cells per well. The cells were incubated (Sanyo) overnight at 37° C. ([…]), and next day treated with increasing concentrations of test compound formulated in fresh medium. The plates were returned to the incubator for 72 hours. […]
The cell viability post compound treatment was determined by the luminescent intensity emitted from the drug treated wells in the plate. In brief, the assay plate was placed in the Biotex Synergy 4 Hybrid plate reader and the luminescence read in each well. The compound treated wells were compared to vehicle treated wells and the % inhibition of cell viability calculated.
The data was analysed using GraphPad Prism, with IC50 values generated using non-linear regression of the data set.

[2] = target: T1, AKT3 (Homo sapiens, UniProt Q9Y243); test: AKT Kinase Assay (IMAP fluorescent polarisation) vs AKT3; format: biochemical
T1 construct: purchased SignalChem
Method in brief: (§1)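 Phosphorylation of FAM-Crosstide detected by IMAP binding and fluorescence polarisation (485/528 nm), with IC50 fitted from % inhibition versus vehicle. Compound was incubated 45 min with enzyme, then reacted 1 h at room temperature with ATP and peptide in Tris/MgCl2/DTT buffer. Dose response had fourteen half-log points.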

[3] = target: T2, AKT1 (Homo sapiens, UniProt P31749); test: AKT Kinase Assay (IMAP fluorescent polarisation) vs AKT1; format: biochemical
T2 construct: purchased SignalChem
Method in brief: as §1

[4] = target: T3, AKT2 (Homo sapiens, UniProt P31751); test: AKT Kinase Assay (IMAP fluorescent polarisation) vs AKT2; format: biochemical
T3 construct: purchased SignalChem
Method in brief: as §1

[5] = system: GSK3β phosphorylation; test: phosphorylation status of members of the AKT/PI3K pathway via ELISA; format: cell-based; details: measured at 48 h, read-out: inhibition of GSK3β phosphorylation, IC50

T2 sequence (P31749 whole entry): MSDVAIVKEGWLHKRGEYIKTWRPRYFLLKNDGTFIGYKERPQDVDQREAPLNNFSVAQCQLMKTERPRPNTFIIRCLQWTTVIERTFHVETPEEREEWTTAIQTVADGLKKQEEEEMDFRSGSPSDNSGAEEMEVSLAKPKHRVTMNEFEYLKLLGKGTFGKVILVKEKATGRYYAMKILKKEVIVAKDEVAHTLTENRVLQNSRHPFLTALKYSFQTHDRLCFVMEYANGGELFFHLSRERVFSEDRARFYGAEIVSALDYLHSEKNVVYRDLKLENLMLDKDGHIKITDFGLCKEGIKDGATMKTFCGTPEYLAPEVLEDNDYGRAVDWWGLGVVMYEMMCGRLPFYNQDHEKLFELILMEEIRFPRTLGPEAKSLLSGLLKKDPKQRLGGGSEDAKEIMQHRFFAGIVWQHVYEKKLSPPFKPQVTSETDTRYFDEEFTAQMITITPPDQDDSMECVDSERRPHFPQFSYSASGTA
T1 sequence (Q9Y243 whole entry): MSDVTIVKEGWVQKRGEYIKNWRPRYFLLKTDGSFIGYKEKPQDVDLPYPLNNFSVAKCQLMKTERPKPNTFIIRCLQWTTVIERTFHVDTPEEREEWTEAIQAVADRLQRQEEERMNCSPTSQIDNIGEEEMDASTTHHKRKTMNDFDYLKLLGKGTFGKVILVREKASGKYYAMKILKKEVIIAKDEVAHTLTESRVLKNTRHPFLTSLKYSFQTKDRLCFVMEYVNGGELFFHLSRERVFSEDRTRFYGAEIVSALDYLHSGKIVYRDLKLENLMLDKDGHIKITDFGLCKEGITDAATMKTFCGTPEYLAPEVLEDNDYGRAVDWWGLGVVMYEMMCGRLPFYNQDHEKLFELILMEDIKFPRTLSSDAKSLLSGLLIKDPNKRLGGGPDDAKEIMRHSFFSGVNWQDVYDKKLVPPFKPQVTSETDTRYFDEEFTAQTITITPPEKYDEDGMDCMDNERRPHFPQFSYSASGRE
T3 sequence (P31751 whole entry): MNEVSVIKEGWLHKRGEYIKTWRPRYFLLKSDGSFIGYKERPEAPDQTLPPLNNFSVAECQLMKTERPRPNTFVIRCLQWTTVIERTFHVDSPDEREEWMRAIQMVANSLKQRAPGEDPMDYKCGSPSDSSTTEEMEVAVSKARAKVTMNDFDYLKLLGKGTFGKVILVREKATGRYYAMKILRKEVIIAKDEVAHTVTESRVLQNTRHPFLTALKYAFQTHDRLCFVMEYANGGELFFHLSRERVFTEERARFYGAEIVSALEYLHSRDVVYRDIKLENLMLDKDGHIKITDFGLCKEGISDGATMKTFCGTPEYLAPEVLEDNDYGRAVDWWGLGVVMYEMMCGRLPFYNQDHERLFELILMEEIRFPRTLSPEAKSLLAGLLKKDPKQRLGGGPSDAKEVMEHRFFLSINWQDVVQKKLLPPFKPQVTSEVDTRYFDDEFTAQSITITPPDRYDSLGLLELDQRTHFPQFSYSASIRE

| Compound | IC50 [1] | IC50 [2] | IC50 [3] | IC50 [4] | IC50 [5] |
| --- | --- | --- | --- | --- | --- |
| NC1(c2ccc(-c3nc4c(cc3-c3ccccc3)-c3nncn3CC4)cc2)CCC1 [Example 28, 1-(4-(9-phenyl-5,6-dihydro-[1,2,4]triazolo[3,4-f][1,6]naphthyridin-8-yl)phenyl)cyclobutanamine] | < 10 µM | > 10 µM | 1 to 10 µM | 0.1 to 1 µM |  |
| CN1C(=O)COc2nc(-c3ccc(C4(N)CCC4)cc3)c(-c3ccccc3)cc21 [Example 31, 6-(4-(1-aminocyclobutyl)phenyl)-1-methyl-7-phenyl-1H-pyrido[2,3-b][1,4]oxazin-2(3H)-one] | < 10 µM | 1 to 10 µM | ≤ 0.1 µM | 0.1 to 1 µM |  |
| CC1Oc2nc(-c3ccc(C4(N)CCC4)cc3)c(-c3ccccc3)cc2N(C)C1=O (stereo not shown) [Example 84, 6-(4-(1-aminocyclobutyl)phenyl)-1,3-dimethyl-7-phenyl-1H-pyrido[2,3-b][1,4]oxazin-2(3H)-one] |  | 1 to 10 µM | 0.1 to 1 µM | 1 to 10 µM |  |
| NC1(c2ccc(-c3nc4c(cc3-c3ccccc3)NC(=O)C(CCO)O4)cc2)CCC1 (stereo not shown) [Example 71, 6-(4-(1-aminocyclobutyl)phenyl)-3-(2-hydroxyethyl)-7-phenyl-1H-pyrido[2,3-b][1,4]oxazin-2(3H)-one] |  | 1 to 10 µM | 0.1 to 1 µM | 1 to 10 µM |  |
| CO/N=C1\COc2nc(-c3ccc(C4(N)CCC4)cc3)c(-c3ccccc3)cc2N1C [Example 90, 6-(4-(1-Aminocyclobutyl)phenyl)-1-methyl-7-phenyl-1H-pyrido[2,3-b][1,4]oxazin-2(3H)-one O-methyl oxime] |  | > 10 µM | 1 to 10 µM | 0.1 to 1 µM |  |
| NC1(c2ccc(-c3nc4c(cc3-c3ccccc3)-c3n[nH]cc3CC4)cc2)CCC1 [Example 4, 1-(4-(8-phenyl-4,5-dihydro-2H-pyrazolo[3,4-f]quinolin-7-yl)phenyl)cyclobutanamine] | < 10 µM | > 10 µM | ≤ 0.1 µM | 0.1 to 1 µM | < 0.1 µM |
| NC1(c2ccc(-c3nc4c(cc3-c3ccccc3)-n3cnnc3CO4)cc2)CCC1 [Example 39, 1-(4-(8-phenyl-4H-pyrido[2,3-b][1,2,4]triazolo[4,3-d][1,4]oxazin-7-yl)phenyl)cyclobutanamine] |  | > 10 µM | 0.1 to 1 µM | 1 to 10 µM |  |
| NC1(c2ccc(-c3nc4c(cc3-c3ccccc3)N(Cc3ccncc3)C(=O)CO4)cc2)CCC1 [Example 45, 6-(4-(1-aminocyclobutyl)phenyl)-7-phenyl-1-(pyridin-4-ylmethyl)-1H-pyrido[2,3-b][1,4]oxazin-2(3H)-one] |  | 1 to 10 µM | 1 to 10 µM | 0.1 to 1 µM |  |
| Cn1cc(N2C(=O)COc3nc(-c4ccc(C5(N)CCC5)cc4)c(-c4ccccc4)cc32)cn1 [Example 83, 6-(4-(1-aminocyclobutyl)phenyl)-1-(1-methyl-1H-pyrazol-4-yl)-7-phenyl-1H-pyrido[2,3-b][1,4]oxazin-2(3H)-one] |  | 1 to 10 µM | 1 to 10 µM | 1 to 10 µM |  |
| NC1(c2ccc(-c3nc4c(cc3-c3ccccc3)N(c3cccnc3)C(=O)CO4)cc2)CCC1 [Example 75, 6-(4-(1-aminocyclobutyl)phenyl)-7-phenyl-1-(pyridin-3-yl)-1H-pyrido[2,3-b][1,4]oxazin-2(3H)-one] |  | > 10 µM | 1 to 10 µM | 1 to 10 µM |  |
| NC1(c2ccc(-c3nc4c(cc3-c3ccccc3)NCCO4)cc2)CCC1 [Example 37, 1-(4-(7-phenyl-2,3-dihydro-1H-pyrido[2,3-b][1,4]oxazin-6-yl)phenyl)cyclobutanamine] |  | > 10 µM | 0.1 to 1 µM | 1 to 10 µM |  |
| CC(=O)N1CCOc2nc(-c3ccc(C4(N)CCC4)cc3)c(-c3ccccc3)cc21 [Example 41, 1-(6-(4-(1-aminocyclobutyl)phenyl)-7-phenyl-2,3-dihydro-1H-pyrido[2,3-b][1,4]oxazin-1-yl)ethanone] |  | > 10 µM | 1 to 10 µM | 0.1 to 1 µM |  |
| NC1(c2ccc(-c3nc4c(cc3-c3ccccc3)N(c3cccnc3)S(=O)(=O)CO4)cc2)CCC1 [Example 74, 6-(4-(1-aminocyclobutyl)phenyl)-7-phenyl-1-(pyridin-3-yl)-1H-pyrido[3,2-e][1,3,4]oxathiazine 2,2-dioxide] |  | > 10 µM | 1 to 10 µM | 1 to 10 µM |  |
| NC1(c2ccc(-c3nc4c(cc3-c3ccccc3)NC(=O)CO4)cc2)CCC1 [Example 30, 6-(4-(1-aminocyclobutyl)phenyl)-7-phenyl-1H-pyrido[2,3-b][1,4]oxazin-2(3H)-one] |  | 1 to 10 µM | 1 to 10 µM | 1 to 10 µM |  |
| C[C@]1(O)C[C@@](N)(c2ccc(-c3nc4c(cc3-c3ccccc3)-n3c(n[nH]c3=O)CO4)cc2)C1 [Example 79, 7-(4-((1r,3r)-1-amino-3-hydroxy-3-methylcyclobutyl)phenyl)-8-phenyl-2,4-dihydro-1H-pyrido[2,3-b][1,2,4]triazolo[4,3-d][1,4]oxazin-1-one] |  | 1 to 10 µM | ≤ 0.1 µM | 0.1 to 1 µM |  |
| Cn1nc2n(c1=O)-c1cc(-c3ccccc3)c(-c3ccc(C4(N)CCC4)cc3)nc1OC2 [Example 99, 7-(4-(1-aminocyclobutyl)phenyl)-2-methyl-8-phenyl-2,4-dihydro-1H-pyrido[2,3-b][1,2,4]triazolo[4,3-d][1,4]oxazin-1-one] |  | 1 to 10 µM | 0.1 to 1 µM | 0.1 to 1 µM |  |

More lines, now with the values ahead:

| IC50 [1] | IC50 [2] | IC50 [3] | IC50 [4] | IC50 [5] | Compound |
| --- | --- | --- | --- | --- | --- |
|  | 1 to 10 µM | ≤ 0.1 µM | ≤ 0.1 µM |  | CCCN1C(=O)COc2nc(-c3ccc(C4(N)CCC4)cc3)c(-c3ccccc3)cc21 [Example 105, 6-(4-(1-aminocyclobutyl)phenyl)-7-phenyl-1-propyl-1H-pyrido[2,3-b][1,4]oxazin-2(3H)-one] |
|  | > 10 µM | 0.1 to 1 µM | > 10 µM |  | NC1(c2ccc(-c3nc4c(cc3-c3ccccc3)-n3c(nnc3-c3ccccn3)CO4)cc2)CCC1 [Example 130, 1-(4-(8-phenyl-1-(pyridin-2-yl)-4H-pyrido[2,3-b][1,2,4]triazolo[4,3-d][1,4]oxazin-7-yl)phenyl)cyclobutanamine] |
|  | > 10 µM | 0.1 to 1 µM | 1 to 10 µM |  | NC1(c2ccc(-c3nc4c(cc3-c3ccccc3)NC(=O)CCN4)cc2)CCC1 [Example 104, 7-(4-(1-aminocyclobutyl)phenyl)-8-phenyl-4,5-dihydro-1H-pyrido[2,3-b][1,4]diazepin-2(3H)-one] |
|  | 1 to 10 µM | 0.1 to 1 µM | 1 to 10 µM |  | CC(C)c1nnc2n1-c1cc(-c3ccccc3)c(-c3ccc(C4(N)CCC4)cc3)nc1OC2 [Example 112, 1-(4-(1-isopropyl-8-phenyl-4H-pyrido[2,3-b][1,2,4]triazolo[4,3-d][1,4]oxazin-7-yl)phenyl)cyclobutanamine] |
|  | > 10 µM | 1 to 10 µM | 0.1 to 1 µM |  | CCN1C(=O)COc2nc(-c3ccc(CN)cc3)c(-c3ccccc3)cc21 [Example 151, 6-(4-(Aminomethyl)phenyl)-1-ethyl-7-phenyl-1H-pyrido[2,3-b][1,4]oxazin-2(3H)-one] |
|  | 1 to 10 µM | 0.1 to 1 µM | 0.1 to 1 µM |  | NC(=O)c1nnc2n1-c1cc(-c3ccccc3)c(-c3ccc(C4(N)CCC4)cc3)nc1OC2 [Example 119, 7-(4-(1-aminocyclobutyl)phenyl)-8-phenyl-4H-pyrido[2,3-b][1,2,4]triazolo[4,3-d][1,4]oxazine-1-carboxamide] |
|  | 0.1 to 1 µM | 0.1 to 1 µM | ≤ 0.1 µM |  | C[C@]1(O)C[C@@](N)(c2ccc(-c3nc4c(cc3-c3ccccc3)N(CC3CC3)C(=O)CO4)cc2)C1 [Example 144, 6-(4-((1r,3r)-1-amino-3-hydroxy-3-methylcyclobutyl)phenyl)-1-(cyclopropylmethyl)-7-phenyl-1H-pyrido[2,3-b][1,4]oxazin-2(3H)-one] |
